Test results: patent EP4768499A1, “MACROCYCLIC PEPTIDE COMPOUND HAVING CELL MEMBRANE PERMEABILITY AND METABOLIC STABILITY, AND LIBRARY CONTAINING SAME” (Chugai Seiyaku Kabushiki Kaisha, priority 2023, dated 2025)
Starred links: 1 amine or outer side, 2 acyl side, 3 side chain; linkers in the order of their positions; H or OH if unused. Positions of bridges follow the written chain, without caps; N, C: chain ends. Non-standard residues stand in square brackets, D forms with d. Residues, ends and D or L forms follow the SMILES beside them. *: point of attachment. NMeF = CN[C@@H](Cc1ccccc1)C(=O)O; NMeGABA = CN(CCCC(=O)[*:2])[*:1]; NMeI = CC[C@H](C)[C@H](NC)C(=O)O; NMeT = CN[C@H](C(=O)O)[C@@H](C)O; hPhe = N[C@@H](CCc1ccccc1)C(=O)O; NMeβAla = CN(CCC(=O)[*:2])[*:1]; NMeL = CN[C@@H](CC(C)C)C(=O)O; NMeV = CN[C@H](C(=O)O)C(C)C; NMeAbu = CC[C@H](NC)C(=O)O; NMeA = CN[C@@H](C)C(=O)O; Piperidide = C1CCN(*)CC1; Abu = CC[C@H](N)C(=O)O; NBuGly = CCCCNCC(=O)O; βAla = NCCC(=O)O; Sar = CNCC(=O)O; tBu = CC(C)(C)*

Tests used:
[1] = Metabolic stability test: liver microsomal stability assay; type: in vitro ADME, mouse; details: mouse liver microsomes 0.5 mg protein/mL, compound 1 µM; for microsomal CLint at 1 µM: male, pH 7.4, presence of NADPH, read-out: Mouse Hepatic Microsome CLh,int NADPH(+); for Mouse Hepatic Microsome CLh,int NADPH(-): absence of NADPH
[2] = Membrane permeability test using Caco-2 cells with preincubation; type: in vitro ADME; details: Caco-2; preincubation 20 to 24 hours; Apical FaSSIF/HBSS pH 6.0, Basal HBSS 4% BSA pH 7.4; 180 minutes; read-out: Caco2 Papp
Caco-2 cells = assay: as above; type: in vitro ADME; details: Caco-2 cells, preincubation 20 to 24 hours; apical FaSSIF/HBSS 1% DMSO pH 6.0, basal HBSS 4% BSA pH 7.4; basal sample at 180 minutes

SMILES | microsomal CLint at 1 µM [1] [µL/min/mg] | Mouse Hepatic Microsome CLh,int NADPH(-) [1] [µL/min/mg Protein] | Papp A→B [2] [×10⁻⁶ cm/s] | Caco2 Papp (10^-6 cm/sec) (Caco-2 cells)
CC[C@H](C)[C@@H]1NC(=O)[C@H](C)N(C)C(=O)[C@H]([C@@H](C)O)NC(=O)[C@H](Cc2ccccc2)N(C)C(=O)[C@H](COC(C)(C)C)NC(=O)[C@H](CC(C)C)N(C)C(=O)CN(C)C(=O)[C@H](Cc2ccccc2)N(C)C(=O)[C@H]([C@@H](C)CC)NC(=O)[C@H](CC(C)C)N(C)C(=O)CCN(C)C(=O)C[C@@H](C(=O)N2CCCCC2)NC(=O)[C@H](CC(C)C)N(C)C1=O [pd110] ([NMeβAla][NMeL]I[NMeF][Sar][NMeL]S(tBu)[NMeF]T[NMeA]I[NMeL]D-Piperidide; lactam N-13) | 38.5 | 30.5 | 0.43 | 0.43 10^-6 cm/sec
CCCCN1CC(=O)N[C@@H](CC(C)C)C(=O)N(C)[C@@H]([C@@H](C)CC)C(=O)N(C)[C@@H]([C@@H](C)O)C(=O)N(C)[C@@H](Cc2ccccc2)C(=O)N[C@@H]([C@@H](C)CC)C(=O)N(C)[C@@H](CC(C)C)C(=O)N[C@H](C(=O)N2CCCCC2)CC(=O)N(C)[C@@H](C)C(=O)N[C@@H](CC(C)C)C(=O)N(C)[C@@H](CC(C)C)C(=O)N(C)[C@@H](Cc2ccccc2)C(=O)N[C@@H](CC)C1=O [pd111] ([NMeA]L[NMeL][NMeF][Abu][NBuGly]L[NMeI][NMeT][NMeF]I[NMeL]D-Piperidide; lactam N-13) | 18.7 | 28.4 | 0.04 | 0.04 10^-6 cm/sec
CC[C@@H]1NC(=O)[C@H](CC(C)C)N(C)C(=O)[C@H](Cc2ccccc2)N(C)C(=O)[C@H](CC(C)C)N(C)C(=O)[C@H](C)NC(=O)C[C@@H](C(=O)N2CCCCC2)NC(=O)[C@H](C(C)C)N(C)C(=O)[C@@H]2CCCN2C(=O)CCN(C)C(=O)[C@H](CC(C)C)NC(=O)[C@H]([C@@H](C)CC)N(C)C(=O)[C@H]([C@@H](C)O)NC(=O)[C@H](Cc2ccccc2)N(C)C1=O [pd112] (A[NMeL][NMeF][NMeL][Abu][NMeF]T[NMeI]L[NMeβAla]P[NMeV]D-Piperidide; lactam N-13) | 30.5 | 21.2 | 0.35 | 0.35 10^-6 cm/sec
CC[C@H](C)[C@H]1C(=O)N[C@@H]([C@@H](C)O)C(=O)N(C)CC(=O)N(C)[C@@H](CC(C)C)C(=O)N[C@@H](CC(C)C)C(=O)N[C@H](C(=O)N2CCCCC2)CC(=O)N(C)[C@@H](C)C(=O)N[C@@H](CC(C)C)C(=O)N(C)[C@@H](CC(C)C)C(=O)N(C)CCC(=O)N(C)[C@@H](Cc2ccccc2)C(=O)NCCC(=O)N(C)[C@@H](Cc2ccccc2)C(=O)N1C [pd113] ([NMeA]L[NMeL][NMeβAla][NMeF][βAla][NMeF][NMeI]T[Sar][NMeL]LD-Piperidide; lactam N-13) | 24.4 | 16.4 | 0.2 | 0.20 10^-6 cm/sec
CC[C@H](C)[C@@H]1NC(=O)[C@H](Cc2ccccc2)N(C)C(=O)CN(C)C(=O)C[C@@H](C(=O)N2CCCCC2)NC(=O)[C@H]([C@@H](C)CC)N(C)C(=O)[C@H](COC(C)(C)C)NC(=O)[C@@H]2CCCN2C(=O)[C@H](CCc2ccccc2)NC(=O)[C@H](CC)N(C)C(=O)[C@H](CC(C)C)NC(=O)[C@H](CC(C)C)N(C)C(=O)[C@H]([C@@H](C)O)N(C)C(=O)[C@H](CC(C)C)N(C)C1=O [pd114] ([Sar][NMeF]I[NMeL][NMeT][NMeL]L[NMeAbu][hPhe]PS(tBu)[NMeI]D-Piperidide; lactam N-13) | 35.6 | 29.2 | 0.16 | 0.16 10^-6 cm/sec
CC(C)C[C@@H]1NC(=O)[C@H]([C@@H](C)O)N(C)C(=O)[C@@H](C(C)C)NC(=O)C[C@@H](C(=O)N2CCCCC2)NC(=O)[C@H](C(C)C)N(C)C(=O)[C@H](C)N(C)C(=O)[C@H](Cc2ccccc2)N(C)C(=O)[C@@H]2CCCN2C(=O)[C@H](CC(C)C)N(C)C(=O)CN(C)C(=O)[C@H](CCc2ccccc2)NC(=O)[C@H](CC(C)C)N(C)C(=O)[C@H](C(C)C)N(C)C1=O [pd116] ([dV][NMeT]L[NMeV][NMeL][hPhe][Sar][NMeL]P[NMeF][NMeA][NMeV]D-Piperidide; lactam N-13) | 19.2 | 14.9 | 0.19 | 0.19 10^-6 cm/sec
CC[C@H](C)[C@H]1C(=O)N[C@@H](Cc2ccccc2)C(=O)N2CCC[C@H]2C(=O)N(C)[C@@H](CC(C)C)C(=O)N[C@@H](COC(C)(C)C)C(=O)N(C)[C@@H](Cc2ccccc2)C(=O)N[C@@H]([C@@H](C)O)C(=O)N(C)[C@@H](CC)C(=O)N2CCC[C@H]2C(=O)N(C)[C@@H](CC(C)C)C(=O)N[C@H](C(=O)N2CCCCC2)CC(=O)N(C)CCCC(=O)N(C)[C@@H](CC(C)C)C(=O)N1C [pd118] ([NMeGABA][NMeL][NMeI]FP[NMeL]S(tBu)[NMeF]T[NMeAbu]P[NMeL]D-Piperidide; lactam N-13) | 31.2 | 19.8 | 0.46 | 0.46 10^-6 cm/sec
CC[C@H](C)[C@H]1C(=O)N[C@@H]([C@@H](C)O)C(=O)N(C)CC(=O)N(C)[C@@H](CC(C)C)C(=O)N(C)[C@@H](Cc2ccccc2)C(=O)N[C@H](C(=O)N2CCCCC2)CC(=O)N(C)[C@@H](C)C(=O)N[C@@H](CC(C)C)C(=O)N(C)[C@@H](Cc2ccccc2)C(=O)N(C)CCC(=O)N(C)[C@@H](CC(C)C)C(=O)N(C)CCC(=O)N[C@@H](CC(C)C)C(=O)N1C [pd120] ([NMeA]L[NMeF][NMeβAla][NMeL][NMeβAla]L[NMeI]T[Sar][NMeL][NMeF]D-Piperidide; lactam N-13) | 25.8 | 18.4 | 0.69 | 0.69 10^-6 cm/sec

Next, values leading:

microsomal CLint at 1 µM [1] [µL/min/mg] | Mouse Hepatic Microsome CLh,int NADPH(-) [1] [µL/min/mg Protein] | Papp A→B [2] [×10⁻⁶ cm/s] | Caco2 Papp (10^-6 cm/sec) (Caco-2 cells) | SMILES
24.9 | 12.3 | 0.09 | 0.09 10^-6 cm/sec | CC[C@H](C)[C@@H]1NC(=O)[C@H](CC(C)C)N(C)C(=O)CN(C)C(=O)C[C@@H](C(=O)N2CCCCC2)NC(=O)[C@H](C)N(C)C(=O)CNC(=O)[C@H](C(C)C)N(C)C(=O)[C@H](C)N(C)C(=O)[C@H](Cc2ccccc2)N(C)C(=O)[C@H](CC(C)C)NC(=O)[C@H](Cc2ccccc2)N(C)C(=O)[C@H]([C@@H](C)O)NC(=O)[C@H](CC(C)C)N(C)C1=O [pd115] ([Sar][NMeL]I[NMeL]T[NMeF]L[NMeF][NMeA][NMeV]G[NMeA]D-Piperidide; lactam N-13)
25.9 | 14.4 | 0.17 | 0.17 10^-6 cm/sec | CC[C@H]1C(=O)N(C)[C@@H](CC(C)C)C(=O)N[C@@H]([C@@H](C)O)C(=O)N(C)[C@@H](C)C(=O)N(C)[C@@H](CC(C)C)C(=O)N[C@H](C(=O)N2CCCCC2)CC(=O)N(C)CCCC(=O)N[C@@H](CC(C)C)C(=O)N(C)[C@@H](CC(C)C)C(=O)N(C)[C@@H](C)C(=O)N(C)[C@@H](Cc2ccccc2)C(=O)N[C@@H](C)C(=O)N(C)[C@@H](Cc2ccccc2)C(=O)N1C [pd117] ([NMeGABA]L[NMeL][NMeA][NMeF]A[NMeF][NMeAbu][NMeL]T[NMeA][NMeL]D-Piperidide; lactam N-13)
41.2 | 34.2 | 0.5 | 0.50 10^-6 cm/sec | CC[C@H](C)[C@H]1C(=O)N[C@@H](CC(C)C)C(=O)N(C)[C@@H](CC(C)C)C(=O)N2CCC[C@H]2C(=O)N(C)[C@@H](C(C)C)C(=O)N[C@H](C(=O)N2CCCCC2)CC(=O)N(C)[C@@H](C)C(=O)N(C)[C@@H](CC(C)C)C(=O)N[C@@H](COC(C)(C)C)C(=O)N(C)[C@@H](Cc2ccccc2)C(=O)N(C)[C@@H](CC)C(=O)N(C)[C@@H](Cc2ccccc2)C(=O)N[C@@H]([C@@H](C)O)C(=O)N1C [pd119] ([NMeA][NMeL]S(tBu)[NMeF][NMeAbu][NMeF]T[NMeI]L[NMeL]P[NMeV]D-Piperidide; lactam N-13)
21.9 | 18.2 | 1.02 | 1.02 10^-6 cm/sec | CC[C@H](C)[C@@H]1NC(=O)[C@H](C)N(C)C(=O)C[C@@H](C(=O)N2CCCCC2)NC(=O)[C@H](CC)N(C)C(=O)[C@H](COC(C)(C)C)NC(=O)[C@H](CC(C)C)N(C)C(=O)[C@H](C)N(C)C(=O)[C@H](CC(C)C)N(C)C(=O)[C@H](Cc2ccccc2)N(C)C(=O)CN(C)C(=O)[C@H]([C@@H](C)O)NC(=O)[C@H](CC(C)C)N(C)C(=O)[C@H](Cc2ccccc2)N(C)C1=O [pd121] ([NMeA]I[NMeF][NMeL]T[Sar][NMeF][NMeL][NMeA][NMeL]S(tBu)[NMeAbu]D-Piperidide; lactam N-13)
